Measured values reported in patent US20250205208A1, “USE OF SU3327 IN PREPARATION OF MEDICAMENT FOR REDUCING CYTOTOXICITY AND NEPHROTOXICITY OF POLYMYXIN” (XIAMEN HANLIXIN PHARMACEUTICAL CO., LTD., priority 2023, published 2025).

Experiments:
HEK293 cells = test: Cell viability test by CCK-8 method; type: cell-based, Human
Method: Human Embryonic Kidney cells (HEK293), preserved by National Center for Veterinary Drug Safety Evaluation of China Agricultural University.
Cytotoxicity was determined by a CCK-8 method. After HEK293 cells (5×10^4 cells/well) were seeded onto 96-well tissue culture plates and cultured for 24 hours, the cells were treated with SU3327 or Polymyxin E alone or in combination, with SU3327 in a final concentration of 5 μM, 2.5 μM, 1.25 μM and 0.625 μM; Polymyxin E in a final concentration of 2 mM; combination groups of SU3327 and Polymyxin E: Polymyxin E (2 mM)+SU3327 (5 μM), Polymyxin E (2 mM)+SU3327 (2.5 μM), Polymyxin E (2 mM)+SU3327 (1.25 μM), Polymyxin E (2 mM)+SU3327 (0.625 μM), and control group (Control) 0.1% DMSO. Following continued culture for 24 h, a CCK-8 kit was used to detect the changes in cell viability.

[1] = in vivo; cited from earlier work
[2] = system: mice having kidney damage induced by Polymyxin E; test: Mouse model of nephrotoxicity by Polymyxin E: urea nitrogen and creatinine in serum; type: in vivo, C57BL/6 mice
Method: (§1) C57BL/6 mice, male, 8-week-old, weighing 20-22 g, purchased from Vital River Laboratory Animal Technology Co., Ltd.
(§2) The mice were housed in the National Center for Veterinary Drug Safety Evaluation of China Agricultural University, fed with routine pelleted feed and free access to water, at a controlled temperature of (22±2)° C., and a humidity of (50±10) %. Adaptive housing was performed for 1 week before experiments.
(§3) […] were randomly divided into 6 groups (n=8 in each group), as follows:
(§4) Control group: the mice were intraperitoneally injected with an equivalent amount of normal saline.
(§5) Polymyxin E model group: the mice were intraperitoneally injected with Polymyxin E
(§6) at a single dose of 10 mg/kg body weight, twice a day, with an interval of 8 hours between doses; i.e., the mice were administered with Polymyxin E in 20 mg/kg body weight per day.
(§7) SU3327 control group: the mice were intraperitoneally injected with dissolved SU3327 at a single dose of 10 mg/kg body weight, once a day for 10 straight days; i.e., the mice were administered with SU3327 in 10 mg/kg body weight per day.
(§8) SU3327 high-dose protection group: the mice were intraperitoneally injected with SU3327 at a single dose of 10 mg/kg body weight, concurrently with Polymyxin E in 10 mg/kg, twice, with an interval of 8 hours between doses; i.e., the mice were administered with SU3327 in 10 mg/kg body weight per day, concurrently with Polymyxin E in 20 mg/kg body weight per day.
as §8, with “medium-dose” for “high-dose”, “[…]” for “10”
SU3327 low-dose protection group: the mice were intraperitoneally injected with SU3327 at a single dose of 2.5 mg/kg body weight, concurrently with Polymyxin E in 10 mg/kg, twice, with an interval of 8 hours between doses; i.e., the mice were administered with SU3327 in 2.5 mg/kg body weight per day, concurrently with Polymyxin E in 20 mg/kg body weight per day. […]
The blood samples collected from the mice were centrifuged at 3000 rpm for 10 min, and the supernatant was aspirated. The changes of urea nitrogen in serum and creatinine in serum were detected by an automatic biochemical detector.

[3] = system: mice having kidney damage induced by Polymyxin E; test: Mouse model of nephrotoxicity by Polymyxin E: kidney histopathology and semiquantitative scoring (SQS); type: in vivo, C57BL/6 mice; details: for pathological damage score: 10 days, P<0.001
Method: as §1, §2, §3, §4, §5, §6, §7, §8
as §8, with “medium-dose” for “high-dose”, “[…]” for “10”
SU3327 low-dose protection group: the mice were intraperitoneally injected with SU3327 at a single dose of 2.5 mg/kg body weight, concurrently with Polymyxin E in 10 mg/kg, twice, with an interval of 8 hours between doses; i.e., the mice were administered with SU3327 in 2.5 mg/kg body weight per day, concurrently with Polymyxin E in 20 mg/kg body weight per day.
In the experiments above, reference was made to the previously published literature by the inventors for the method of establishing the mouse model of nephrotoxicity by Polymyxin E (Dai C, Tang S, Wang Y, Velkov T, Xiao X. Baicalein acts as a nephroprotectant that ameliorates colistin-induced nephrotoxicity by activating the antioxidant defence mechanism of the kidneys and down-regulating the inflammatory response. J Antimicrob Chemother. 2017 Sep. 1; 72(9):2562-2569).
Following dosing by injection for 10 straight days, the mice were euthanized by intraperitoneal injection with an overdose of sodium pentobarbital (80 mg/kg) 24 hours post the last dosing, and blood and kidney tissues were collected quickly, the serum and tissues were processed as follows.
The isolated, fresh kidney tissues were washed with normal saline, sampled and fixed in 10% neutral formalin for 48 h, after being flushed with water, and then dehydrated, cleared, immersed in paraffin, embedded, sectioned and stained in sequence. The pathological changes in kidney tissues were observed and photographed under a microscope. HE staining: the paraffin sections were taken, and placed in an oven at a constant temperature of 60° C. for 30 min; followed by paraffin removal and dehydration with ethanol, and immersing with double distilled water; hematoxylin staining for 10 min, rinsing with tap water, and differentiation with acid alcohol; flushing with running water until the sections turned blue; 95% ethanol for 30 s, alcoholic eosin staining for 30 s, 95% ethanol for 30 s, and 100% ethanol for 30 s; clearing with Xylene, and sealing with neutral gum.
Following HE staining, damages to the renal tissues were evaluated using a semiquantitative scoring (SQS). […]

E. coli = details: laboratory tests, Collins group, Cell 2020; cited from earlier work
Akt kinases = details: cited from earlier work
JNK = details: read-out: IC50 as JNK inhibitor; cited from earlier work
[4] = system: Mycobacterium tuberculosis; details: laboratory tests, Collins group, Cell 2020; cited from earlier work
p38α = p38α (Homo sapiens, UniProt Q16539); details: cited from earlier work
Sequence of p38α (Q16539 whole entry): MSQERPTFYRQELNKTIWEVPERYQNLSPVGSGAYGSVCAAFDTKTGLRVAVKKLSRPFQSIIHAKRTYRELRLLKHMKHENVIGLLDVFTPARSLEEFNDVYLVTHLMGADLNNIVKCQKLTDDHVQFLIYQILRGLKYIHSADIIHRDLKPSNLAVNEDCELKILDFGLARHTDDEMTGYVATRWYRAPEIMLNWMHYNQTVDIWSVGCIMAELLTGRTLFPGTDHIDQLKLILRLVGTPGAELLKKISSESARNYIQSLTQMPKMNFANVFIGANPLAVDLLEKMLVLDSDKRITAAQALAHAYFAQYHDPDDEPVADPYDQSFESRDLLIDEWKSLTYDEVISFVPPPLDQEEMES

Clostridium difficile = details: laboratory tests, Collins group, Cell 2020; cited from earlier work
JNK and JIP = details: read-out: IC50 for inhibition of protein interaction between JNK and JIP; cited from earlier work
[5] = Polymyxin E 20 mg/kg per day i.p. for 10 straight days
[6] = SU3327 at 2.5, 5 and 10 mg/kg i.p. in combination with Polymyxin E 20 mg/kg per day, 10 days

Polymyxin E
cell viability (HEK293 cells; polymyxin alone 2 mM, 24 hours): 55.3% | clinical incidence of nephrotoxicity [1]: up to 60% | clinical incidence of neurotoxicity [1]: about 7% | clinical incidence of symptoms from mild peripheral neurotoxicity [1]: ≤ 100% | level of BUN in the serum compared to control group [2, 5]: significantly up-regulated | level of CRE in the serum compared to control group [2, 5]: significantly up-regulated | average of pathological semiquantitative score [3, 5]: 3 | kidney pathological damages (epithelial cell shedding, necrosis, tubular casts) [3, 5]: obvious pathological damages

Nc1nnc(Sc2ncc([N+](=O)[O-])s2)s1 [SU3327]
growth of E. coli (E. coli): effectively prevented the growth | activity for Akt kinases (Akt kinases): low activity | IC50 (JNK): 700 nM | cell viability (HEK293 cells; SU3327 2.5 μM in combination with Polymyxin E 2 mM, 24 h): 68.5% | cell viability compared to treatment group with polymyxin alone (HEK293 cells; SU3327 (5-0.625 μM) in combination with Polymyxin E 2 mM, 24 h): increased to some extent | cell viability compared with control group (HEK293 cells; SU3327 alone in 5 μM, 2.5 μM, 1.25 μM and 0.625 μM, 24 h): significantly changed | killing of Mycobacterium tuberculosis [4]: killed | activity for p38α (p38α): low activity | killing of Clostridium difficile (Clostridium difficile): killed | IC50 (JNK and JIP): 239 nM | level of creatinine in the serum compared to Polymyxin E model group [2, 6]: significantly lowered | level of urea nitrogen in the serum compared to Polymyxin E model group [2, 6]: significantly lowered | pathological damage score ([3]; SU3327 2.5 mg/kg i.p. in combination with Polymyxin E 20 mg/kg per day): 1 | pathological damage score ([3]; SU3327 5 mg/kg i.p. in combination with Polymyxin E 20 mg/kg per day): 0.75 | pathological damage score ([3]; SU3327 10 mg/kg i.p. in combination with Polymyxin E 20 mg/kg per day): 0.5 | pathological changes in renal tubules ([3]; SU3327 in combination with Polymyxin E): remarkably improved
